Source: ChEMBL document CHEMBL3822445, “Histone demethylating agents as potential S-adenosyl-l-methionine-competitors” (Medchemcomm, 2016)
Activity calls are given as the source filed them. The rule behind the calls is not given here.

Key:
MCF7 [1] = experiment: Inhibition of DNA methylation in human MCF7 cells assessed as reduction in H3K27me3 levels at 15 uM after 48 hrs by Western blot analysis; format: cell-based
MCF7 [2] = experiment: Inhibition of DNA methylation in human MCF7 cells assessed as reduction in H3K9me3 levels at 15 uM after 48 hrs by Western blot analysis; format: cell-based
MCF7 [3] = experiment: Antiproliferative activity against human MCF7 cells after 48 to 72 hrs by MTT assay; format: functional, cell-based
[4] = Antiproliferative activity against human H460 cells after 48 to 72 hrs by MTT assay; format: functional, cell-based; conditions: NCI-H460
MSTO-211H = experiment: Antiproliferative activity against human MSTO-211H cells after 48 to 72 hrs by MTT assay; format: functional, cell-based
MCF7 [5] = experiment: Cell cycle arrest in human MCF7 cells assessed as accumulation at G0/G1 phase at 15 uM after 24 hrs by flow cytometry relative to control; format: functional
MCF7 [6] = experiment: Induction of apoptosis in human MCF7 cells assessed as viable cells at 15 uM after 48 hrs by AnnexinV-FITC staining based flow cytometry (reference value: 74.4 +/- 9.1 %); format: functional; conditions: MCF7, 48 h, read-out: Activity
MCF7 [7] = experiment: Induction of apoptosis in human MCF7 cells assessed as viable cells at 15 uM after 72 hrs by AnnexinV-FITC staining based flow cytometry (reference value: 60.5 +/- 6 %); format: functional; conditions: MCF7, 72 h, read-out: Activity
MCF7 [8] = experiment: Induction of apoptosis in human MCF7 cells assessed as early apoptotic cells at 15 uM after 48 hrs by AnnexinV-FITC staining based flow cytometry (reference value: 7.8 +/- 5.3 %); format: functional
MCF7 [9] = experiment: Induction of apoptosis in human MCF7 cells assessed as early apoptotic cells at 15 uM after 72 hrs by AnnexinV-FITC staining based flow cytometry (reference value: 20.1 +/- 7.3 %); format: functional
MCF7 [10] = experiment: Induction of apoptosis in human MCF7 cells assessed as late apoptotic cells at 15 uM after 48 hrs by AnnexinV-FITC staining based flow cytometry (reference value: 7.6 +/- 5.9 %); format: functional
MCF7 [11] = experiment: Induction of apoptosis in human MCF7 cells assessed as late apoptotic cells at 15 uM after 72 hrs by AnnexinV-FITC staining based flow cytometry (reference value: 11.8 +/- 2.2 %); format: functional
MCF7 [12] = experiment: Induction of apoptosis in human MCF7 cells assessed as necrotic cells at 15 uM after 48 hrs by AnnexinV-FITC staining based flow cytometry (reference value: 10.2 +/- 1.9 %); format: functional
MCF7 [13] = experiment: Induction of apoptosis in human MCF7 cells assessed as necrotic cells at 15 uM after 72 hrs by AnnexinV-FITC staining based flow cytometry (reference value: 7.6 +/- 1 %); format: functional
[14] = target: T1, Histone-lysine N-methyltransferase EHMT2 (Homo sapiens) (UniProt Q96KQ7); experiment: Inhibition of G9a in human MCF7 nuclear extracts assessed as reduction in H3K9 levels at 15 uM after 48 hrs; format: cell-based
T1 sequence (whole entry): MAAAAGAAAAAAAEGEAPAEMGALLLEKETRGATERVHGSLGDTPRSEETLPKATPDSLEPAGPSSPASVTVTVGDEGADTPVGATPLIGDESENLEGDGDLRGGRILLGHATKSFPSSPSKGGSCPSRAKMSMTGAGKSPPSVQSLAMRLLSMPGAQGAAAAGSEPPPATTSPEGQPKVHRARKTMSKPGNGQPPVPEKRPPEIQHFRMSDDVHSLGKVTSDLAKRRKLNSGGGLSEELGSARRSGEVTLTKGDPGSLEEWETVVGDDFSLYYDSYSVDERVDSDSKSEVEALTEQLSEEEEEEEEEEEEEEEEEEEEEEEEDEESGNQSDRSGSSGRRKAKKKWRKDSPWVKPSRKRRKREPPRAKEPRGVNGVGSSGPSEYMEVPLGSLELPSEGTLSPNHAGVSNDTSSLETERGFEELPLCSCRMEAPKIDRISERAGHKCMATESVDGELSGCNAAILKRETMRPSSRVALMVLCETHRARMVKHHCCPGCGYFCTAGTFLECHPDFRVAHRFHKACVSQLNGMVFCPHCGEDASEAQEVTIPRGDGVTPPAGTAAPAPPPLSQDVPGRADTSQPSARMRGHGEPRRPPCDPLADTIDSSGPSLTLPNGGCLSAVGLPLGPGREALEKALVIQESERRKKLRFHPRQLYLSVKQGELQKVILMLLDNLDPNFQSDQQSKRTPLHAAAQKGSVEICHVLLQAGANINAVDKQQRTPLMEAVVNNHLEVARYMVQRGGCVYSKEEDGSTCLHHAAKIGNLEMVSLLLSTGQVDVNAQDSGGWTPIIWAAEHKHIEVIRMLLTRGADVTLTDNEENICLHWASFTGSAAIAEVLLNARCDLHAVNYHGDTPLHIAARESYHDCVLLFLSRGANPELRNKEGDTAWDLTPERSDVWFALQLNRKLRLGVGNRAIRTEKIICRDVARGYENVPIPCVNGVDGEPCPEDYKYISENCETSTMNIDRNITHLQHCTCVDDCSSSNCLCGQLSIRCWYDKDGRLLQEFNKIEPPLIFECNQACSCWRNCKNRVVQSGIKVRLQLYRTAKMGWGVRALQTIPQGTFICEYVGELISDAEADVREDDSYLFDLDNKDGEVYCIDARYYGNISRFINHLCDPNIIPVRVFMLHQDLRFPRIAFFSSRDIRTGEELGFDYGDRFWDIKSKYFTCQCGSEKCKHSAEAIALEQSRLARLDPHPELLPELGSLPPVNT

[15] = target: T1, Histone-lysine N-methyltransferase EHMT2 (Homo sapiens); experiment: Inhibition of G9a in human MCF7 nuclear extracts assessed as reduction in H3K27 levels at 15 uM after 48 hrs; format: cell-based
[16] = Antiproliferative activity against human Ovarian cancer LA#83 cells assessed as cell survival at 20 uM after 72 hrs by MTT assay relative to control; format: functional; conditions: read-out: Survival
[17] = Antiproliferative activity against human Ovarian cancer DC#83 cells assessed as cell survival at 20 uM after 72 hrs by MTT assay relative to control; format: functional; conditions: read-out: Survival
[18] = Antiproliferative activity against human Ovarian cancer LA#110 cells assessed as cell survival at 20 uM after 72 hrs by MTT assay relative to control; format: functional; conditions: read-out: Survival
[19] = Antiproliferative activity against human Ovarian cancer DC#110 cells assessed as cell survival at 20 uM after 72 hrs by MTT assay relative to control; format: functional; conditions: read-out: Survival
MCF7 [20] = experiment: Inhibition of DNA methylation in human MCF7 cells assessed as decrease in 5-methylcytosine level by ELISA; format: cell-based
MCF7 [21] = experiment: Inhibition of DNA methylation in human MCF7 cells assessed as decrease in methylation of RARbeta DNA by qPCR method; format: cell-based
MCF7 [22] = experiment: Inhibition of DNA methylation in human MCF7 cells assessed as reduction in H3K9me3 levels at 3 uM after 48 hrs by Western blot analysis; format: cell-based
MCF7 [23] = experiment: Inhibition of DNA methylation in human MCF7 cells assessed as reduction in H3K27me3 levels at 3 uM after 48 hrs by Western blot analysis; format: cell-based
MCF7 [24] = experiment: Cell cycle arrest in human MCF7 cells assessed as accumulation at G2/M phase at 15 uM after 72 hrs by flow cytometry relative to control; format: functional

Structure (SMILES) | inhibition (MCF7 [1]) | inhibition (MCF7 [2]) | IC50 (MCF7 [3]) [µM] | IC50 [4] [µM] | IC50 (MSTO-211H) [µM] | viability at 15 µM (MCF7 [6]) [%] | viability at 15 µM (MCF7 [7]) [%] | Activity (MCF7 [8]) [%] | Activity (MCF7 [9]) [%] | Activity (MCF7 [10]) [%] | Activity (MCF7 [11]) [%] | Activity (MCF7 [12]) [%] | Activity (MCF7 [13]) [%] | inhibition [14] | inhibition [15] | viability at 20 µM [16] [%] | viability at 20 µM [17] [%] | viability at 20 µM [18] [%] | viability at 20 µM [19] [%] | inhibition (MCF7 [21]) | also measured
CCCCN1C(=O)[C@H]2Cc3c([nH]c4ccccc34)CN2C1=O | 60% | 50% | 32.3 | > 20 | > 20 | 70.4 | 61.2 | 12.2 | 19.5 | 11 | 12.1 | 6.4 | 7.2 | Active | inactive | 64.7 | 91.2 | 78 | 86.4 | Active | Activity (MCF7 [5]): 3%; inhibition (MCF7 [20]): Active
C#CCN(C)Cc1ccccc1 [PARGYLINE] | – | – | – | – | – | – | – | – | – | – | – | – | – | – | – | 77.7 | 96.7 | 85 | 59.1 | – | –
CN1C(=O)[C@@]23C[C@]4([C@]56C[C@@]78SS[C@@](CO)(C(=O)N7[C@H]5Nc5ccccc56)N(C)C8=O)c5ccccc5N[C@@H]4N2C(=O)[C@]1(CO)SS3 [CHAETOCIN] | – | – | – | – | – | – | – | – | – | – | – | – | – | – | – | -3.25 | 67.8 | -2.63 | -4.22 | Active | –
COc1cc2nc(N3CCCN(C)CC3)nc(NC3CCN(Cc4ccccc4)CC3)c2cc1OC | – | – | – | – | – | 67.2 | 65.8 | 12.6 | 13.5 | 13.8 | 14.3 | 6.3 | 6.3 | Active | Active | 57 | 86.2 | 50.2 | 73 | – | inhibition (MCF7 [22]): 80%; inhibition (MCF7 [23]): 25%
CCCCN1C(=O)[C@H]2Cc3c(n(CO)c4ccccc34)CN2C1=O | 20% | 40% | 30.7 | > 20 | > 20 | 71.1 | 52.1 | 8.3 | 25.5 | 12.1 | 15.2 | 8.5 | 7.2 | Active | Active | 67.8 | 101 | 56 | 82.2 | Active | Activity (MCF7 [5]): 3%; inhibition (MCF7 [20]): Active
CN1CCN(C(=O)[C@H]2Cc3c([nH]c4ccccc34)[C@@H]3N(C)c4ccccc4C(=O)N23)CC1 | 30% | 70% | 34.8 | 9.05 | 6.6 | 64.6 | 54.7 | 13.6 | 23.3 | 12.2 | 15.8 | 9.6 | 6.2 | Active | Active | 77.3 | 84.2 | 56.7 | 87.7 | Active | Activity (MCF7 [24]): Active; inhibition (MCF7 [20]): Active
CCCCN1C(=O)[C@@H]2Cc3c(n(CO)c4ccccc34)CN2C1=O | 40% | 50% | 38.7 | > 20 | > 20 | 69.4 | 58.6 | 13.1 | 20.6 | 13.5 | 13.7 | 4.1 | 7.1 | Active | Active | 91.8 | 96 | 71.8 | 93.8 | Active | Activity (MCF7 [5]): 3%; inhibition (MCF7 [20]): Active
Cc1nc(Nc2ncc(C(=O)Nc3c(C)cccc3Cl)s2)cc(N2CCN(CCO)CC2)n1 [DASATINIB] | – | – | – | – | – | – | – | – | – | – | – | – | – | – | – | 38.3 | 73.1 | 20.5 | 58.7 | – | –
Cc1ccc(-c2cn3c(n2)sc2ccccc23)cc1 | inactive | inactive | 30.4 | > 20 | > 20 | 61.4 | 45.2 | 18.7 | 29 | 11.8 | 21 | 8.1 | 4.8 | Active | inactive | 70.2 | 90.3 | 77.1 | 80.1 | inactive | Activity (MCF7 [24]): Active; inhibition (MCF7 [20]): inactive
C#Cc1cccc(Nc2ncnc3cc(OCCOC)c(OCCOC)cc23)c1 [ERLOTINIB] | – | – | – | – | – | – | – | – | – | – | – | – | – | – | – | 24.7 | 94.5 | 27.7 | 75.3 | – | –
N[C@@H]1C[C@H]1c1ccccc1.N[C@H]1C[C@@H]1c1ccccc1 [TRANYLCYPROMINE] | – | – | – | – | – | – | – | – | – | – | – | – | – | – | – | 77.5 | 102 | 60.6 | 93.6 | – | –
CCN(CC)CCNC(=O)c1c(C)[nH]c(/C=C2\C(=O)Nc3ccc(F)cc32)c1C [SUNITINIB] | – | – | – | – | – | – | – | – | – | – | – | – | – | – | – | 9.8 | 73.7 | 2.6 | 54.2 | – | –
